Each molecule was assayed against T1, Hexokinase-1 (Homo sapiens, UniProt P19367) (assay: hexokinase 1 activators, dose response, selectivity assay for HKDC1 activator project, biochemical (AID 504762)).
T1 sequence (P19367 whole entry): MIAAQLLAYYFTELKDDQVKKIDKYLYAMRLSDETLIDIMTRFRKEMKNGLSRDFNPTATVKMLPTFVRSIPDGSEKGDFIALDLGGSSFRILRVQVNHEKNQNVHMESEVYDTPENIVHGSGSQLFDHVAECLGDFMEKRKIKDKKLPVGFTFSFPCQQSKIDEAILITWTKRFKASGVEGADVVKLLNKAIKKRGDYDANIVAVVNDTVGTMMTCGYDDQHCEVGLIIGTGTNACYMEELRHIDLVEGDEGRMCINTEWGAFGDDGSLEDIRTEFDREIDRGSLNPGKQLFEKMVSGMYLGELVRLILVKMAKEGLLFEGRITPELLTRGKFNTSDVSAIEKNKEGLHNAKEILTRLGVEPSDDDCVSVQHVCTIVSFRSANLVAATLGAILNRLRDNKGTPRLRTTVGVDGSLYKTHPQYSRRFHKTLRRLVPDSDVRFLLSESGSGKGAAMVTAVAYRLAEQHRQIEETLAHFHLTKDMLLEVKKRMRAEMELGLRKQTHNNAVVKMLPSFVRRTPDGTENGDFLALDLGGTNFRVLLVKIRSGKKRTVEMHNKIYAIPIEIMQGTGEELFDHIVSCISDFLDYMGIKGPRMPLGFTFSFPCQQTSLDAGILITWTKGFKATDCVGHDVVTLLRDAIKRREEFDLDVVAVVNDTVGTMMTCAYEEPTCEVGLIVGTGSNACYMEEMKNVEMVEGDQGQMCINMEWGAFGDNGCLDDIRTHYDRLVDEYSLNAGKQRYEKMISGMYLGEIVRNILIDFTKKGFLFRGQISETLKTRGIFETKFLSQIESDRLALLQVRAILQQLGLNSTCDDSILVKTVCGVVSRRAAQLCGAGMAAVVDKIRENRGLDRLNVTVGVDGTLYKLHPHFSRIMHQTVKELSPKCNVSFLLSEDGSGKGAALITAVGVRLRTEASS

| SMILES | EC50 [µM] |
| --- | --- |
| CC(N=Nc1nc2ccccc2o1)c1cc2ccccc2cn1 (centres undefined) | > 80 |
| Nn1cnnc1N=NCc1cc(Br)cc(Br)c1O | 42.3 |
| Cc1[nH]n(-c2ccccc2)c(=O)c1CN=Nc1nncc(-c2ccccc2)n1 [(4E)-5-methyl-2-phenyl-4-[[(5-phenyl-1,2,4-triazin-3-yl)hydrazo]methylidene]-3-pyrazolone] | > 80 |
| Cc1ccc2c(C)c3ccc4ccccc4c3c[n+]2c1 [MLS002701915] | 5.2 |
| CC(=O)Oc1cccc2c(O)c3c(c(O)c12)CC=CC3OC(C)=O (centres undefined) [SMR001574207] | 34.1 |
| CCCOC1=CC(=O)C(C=NNC(=S)Nc2ccccc2[N+](=O)[O-])C=C1 (centres undefined) [1-(2-nitrophenyl)-3-[[(E)-(6-oxo-4-propoxy-1-cyclohexa-2,4-dienylidene)methyl]amino]thiourea] | > 80 |
| Oc1c(Cl)c(N=Cc2cccnc2)c(O)c2ccccc12 [MLS001195521] | 30.8 |
| O=C1C(=C2C(=O)c3ccccc3C2=O)Nc2ccccc21 [MLS000071738] | 37.1 |
| CC(C)(C)c1nnc(N=NCc2cc(Br)ccc2O)n(N)c1=O [4-azanyl-3-[2-[(E)-(3-bromanyl-6-oxidanylidene-cyclohexa-2,4-dien-1-ylidene)methyl]hydrazinyl]-6-tert-butyl-1,2,4-triazin-5-one] | > 80 |
